Experiments:
Acute toxicity test = conditions: rat, in vivo; oral, male rats
From the text: Each of the compounds of the present invention was orally administered to male rats to determine the acute toxicity.

Male mice of ddy-strain = assay: Halothane anesthesia increasing activity; type: in vivo, mouse; conditions: for Time (minutes) between introduction of anesthesia and waking (righting reflex): oral, 32 mg/kg, 1 hour before 4% Halothane for 3 minutes, male ddy mice, saline control 4.2; for Halothane anesthesia increasing activity / central nervous controlling effect in words: compared with control (physiological saline solution)
Protocol: Male mice of ddy-strain having about 20 g body weight were used. One test group consists of 10 mice. An aqueous Gummi Arabicum suspension of test compound (80 mg of a compound to be tested and 1 g of Gummi Arabicum/100 ml of physiological NaCl solution) was administered orally to each mouse at the dosage of 32 mg of test compound/kg body. One hour after the administration, each mouse was placed in gas respiration chamber (13×13×24 cm) and oxygen gas containing 4% of Halothane [2-bromo-2-chloro-1,1,1-trifluoroethane] was blown into the chamber at the velocity of 2 l/min for 3 minutes. A mouse anaesthetized was taken out from the chamber and the time between the introduction of anesthesia to waking was measured by righting reflex as the index. To mice of control group, 1% Gummi Arabicum aqueous physiological solution was orally administered at the dosage of 0.1 ml/kg body. (Reference: M. J. Turnbull and J. W. Watkins: Br. J. Pharmacol., 58, 27-35 (1976))

ileum of a guinea pig = ileum of a guinea pig (Cavia porcellus, UniProt P31389); assay: cell-based; conditions: histamine-induced retraction of guinea pig ileum, test compound 10^-6 g/ml, 36° C., Van Rossam method; for Kb: read-out: pA2 (converted)
Protocol: Pharmacological tests of the present compounds were conducted according to said method as follows:
A male guinea pig having 300 to 500 g body weight is killed by blood letting. An ileum having length of 15 cm being enucleated from the ileocecal region is dipped into Tyrode's solution (which is prepared from 8.0 g of NaCl, 0.2 g of KCl, 0.2 g of CaCl2, 1.0 g of glucose, 1.0 g of NaHCO3, 0.065 g of NaHPO4.2H2 O and 0.2135 g of MgCl2.6H2 O to make 1000 ml in total volume by adding water). Then the tissue of ileum is cut to a length of 2.5 to 3.0 cm and suspended in an organ bath filled with 30 ml of Tyrode's solution. The organ bath is kept a temperature of 36° C. while blowing a mixed gas consisting of 5% of CO2 and 95% of O2 into the bath. 10 Minutes after the blowing, 10^-6 M of histamine is added to the bath to examine the sensitivity of the tissue and a reaction curve (control) with respect to the dosage of histamine is obtained. After the dosage of histamine-reaction curve (control) become constant 10^-6 g/ml of a compound to be tested is added to the bath and further histamine is added 5 minutes later to obtain dosage-reaction curve. Retraction of the ileum is recorded on a pen-recorder through an isotonic transducer (TD-112S manufactured by Nihon Koden).

ileum of a guinea pig, sequence (P31389 whole entry): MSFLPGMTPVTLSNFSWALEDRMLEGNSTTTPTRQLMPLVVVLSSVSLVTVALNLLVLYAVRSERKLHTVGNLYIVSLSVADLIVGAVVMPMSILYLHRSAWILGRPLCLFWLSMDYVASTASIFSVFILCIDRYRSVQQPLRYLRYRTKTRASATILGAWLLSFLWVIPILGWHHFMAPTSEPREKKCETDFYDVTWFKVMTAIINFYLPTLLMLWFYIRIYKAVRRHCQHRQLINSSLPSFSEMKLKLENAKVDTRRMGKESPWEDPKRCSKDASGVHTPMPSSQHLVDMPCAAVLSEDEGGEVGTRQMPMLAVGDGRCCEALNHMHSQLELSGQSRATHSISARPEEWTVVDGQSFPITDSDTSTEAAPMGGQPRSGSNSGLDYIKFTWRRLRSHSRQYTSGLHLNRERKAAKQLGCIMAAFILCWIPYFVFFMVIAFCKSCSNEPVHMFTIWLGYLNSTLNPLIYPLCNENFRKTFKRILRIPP

Row | Structure (SMILES) | LD50 (Acute toxicity test) | Time (minutes) between introduction of anesthesia and waking (righting reflex) (Male mice of ddy-strain) | Kb (ileum of a guinea pig) | pA2 (ileum of a guinea pig) | Halothane anesthesia increasing activity / central nervous controlling effect in words (Male mice of ddy-strain)
1 | C#CCN1C(=O)CCc2c(OCCCN3CCC(Cc4ccccc4)CC3)cccc21.Cl [Compound 3, 1-Propargyl-5-[3-(4-benzyl-1-piperidyl)-propoxy]-3,4-dihydrocarbostyril monohydrochloride] | > 1000 mg/kg | 5.1 min | 0.186 nM | – | –
2 | CN1C(=O)CCc2c(OCCCN3CCC(Cc4ccccc4)CC3)cccc21.Cl [Compound 4, 1-Methyl-5-[3-(4-benzyl-1-piperidyl)propoxy]-3,4-dihydrocarbostyril monohydrochloride] | > 1000 mg/kg | 4.2 min | 0.01 nM | – | –
3 | Cc1cc(=O)[nH]c2cc(OCCCN3CCC(Cc4ccccc4)CC3)ccc12 [Compound 5, 4-Methyl-7-[3-(4-benzyl-1-piperidyl)propoxy]-carbostyril] | > 1000 mg/kg | 4.6 min | 0.257 nM | – | –
4 | C=CCN1C(=O)CCc2c(OCC(O)CN3CCC(Cc4ccccc4)CC3)cccc21.O=C(O)C(=O)O (stereo not drawn) [Compound 6, 1-Allyl-5-[2-hydroxy-(4-benzyl-1-piperidyl)-propoxy]-3,4-dihydrocarbostyril monooxalate] | > 1000 mg/kg | 5.6 min | 0.288 nM | – | –
5 | CCN1C(=O)CCc2c(OCC(O)CN3CCC(Cc4ccccc4)CC3)cccc21.O=C(O)C(=O)O (stereo not drawn) [Compound 7, 1-Ethyl-5-[2-hydroxy-3-(4-benzyl-1-piperidyl)-propoxy]-3,4-dihydrocarbostyril monooxalate] | > 1000 mg/kg | 4.2 min | 0.224 nM | – | –
6 | O=C1CCc2c(OCC(O)CN3CCC(Cc4ccccc4)CC3)ccc(Br)c2N1 (stereo not drawn) [Compound 8, 8-Bromo-5-[2-hydroxy-3-(4-benzyl-1-piperidyl)-propoxy]-3,4-dihydrocarbostyril] | > 1000 mg/kg | 5.5 min | 4.07 nM | – | –
7 | O=C(O)C(=O)O.O=C1CCc2c(OCC(O)CN3CCC(Cc4ccccc4)CC3)cccc2N1Cc1ccccc1 (stereo not drawn) [Compound 12, 1-Benzyl-5-[2-hydroxy-(4-benzyl-1-piperidyl)-propoxy]-3,4-dihydrocarbostyril monooxalate] | > 1000 mg/kg | 4.2 min | 0.02 nM | – | –
8 | O=C1CCc2c(cccc2OCCCN2CCC(O)(c3ccccc3)CC2)N1 [Compound 14, 5-{3-[4-(4-Hydroxy-4-phenyl)-1-piperidyl]}-3,4-dihydrocarbostyril] | > 1000 mg/kg | 5.1 min | – | 9.30 | –
9 | COc1ccc(N2CCN(CC(O)COc3ccc(NC(N)=O)c4c3CCC(=O)N4)CC2)cc1.Cl (stereo not drawn) [S, 5-{2-Hydroxy-3-[4-(4-methoxyphenyl)-1-piperazinyl]propoxy}-8-ureido-3,4-dihydrocarbostyril hydrochloride, reference compound] | – | 9.1 min | 10.7 nM | – | different Halothane anesthesia increasing activity as compared with control
10 | Cc1ccccc1N1CCN(CC(O)COc2ccc(NS(C)(=O)=O)c3c2CCC(=O)N3)CC1 (stereo not drawn) [T, 8-Methanesulfonylamino-5-{2-hydroxy-3-[4-(2-methylphenyl)-1-piperazinyl]propoxy}-3,4-dihydro-carbostyril, reference compound] | – | 8.9 min | 15.8 nM | – | different Halothane anesthesia increasing activity as compared with control

— patent publication US4482560A, “Carbostyril derivatives, and antihistaminic agents containing the same” (priority 1979, dated 1984)
